The results in this text go back to article PMC3260189, “The Location and Nature of General Anesthetic Binding Sites on the Active Conformation of Firefly Luciferase; A Time Resolved Photolabeling Study” (PLoS ONE, 2012).

Where only a bound is given, the exact number is not on record here.

Assay [1] deals with T1, American firefly luciferase (Photinus pyralis, UniProt P08659).
T1 construct: recombinant luciferase
The experiment in a line: stopped-flow inhibition of initial light output. The class given is biochemical.

Assay [2] deals with T1, American firefly luciferase. The experiment in a line: equilibrium photolabeling with LC-MSMS. It is filed as binding.
The target in assay [3] is T2, Japanese firefly luciferase (Nipponoluciola cruciata, UniProt P13129).
T2 construct: recombinant luciferase
T2 sequence (P13129 1-548): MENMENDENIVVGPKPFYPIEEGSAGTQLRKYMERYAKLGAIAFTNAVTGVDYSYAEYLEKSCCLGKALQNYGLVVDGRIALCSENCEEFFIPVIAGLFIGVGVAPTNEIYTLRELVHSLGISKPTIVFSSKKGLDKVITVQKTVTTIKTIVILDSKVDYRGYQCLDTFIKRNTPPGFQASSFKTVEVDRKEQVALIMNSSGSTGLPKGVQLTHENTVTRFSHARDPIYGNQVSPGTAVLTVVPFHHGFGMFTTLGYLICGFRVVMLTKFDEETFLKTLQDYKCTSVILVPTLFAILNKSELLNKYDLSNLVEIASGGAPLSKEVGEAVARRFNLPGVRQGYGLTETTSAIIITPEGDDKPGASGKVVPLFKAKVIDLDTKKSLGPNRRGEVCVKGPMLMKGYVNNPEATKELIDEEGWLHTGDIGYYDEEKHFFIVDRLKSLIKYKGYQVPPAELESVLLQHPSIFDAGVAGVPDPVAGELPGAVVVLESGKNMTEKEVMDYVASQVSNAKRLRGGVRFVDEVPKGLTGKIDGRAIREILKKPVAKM
Description: [3H] photoincorporation and time-resolved photolabeling with LC-MSMS. It is filed as binding.

Assay [4] has as its target T1, American firefly luciferase. The experiment in a line: stopped-flow inhibition of initial ATP-induced light output; photolabeling with LC-MSMS also done. It is filed as biochemical.

T1 sequence (P08659 whole entry): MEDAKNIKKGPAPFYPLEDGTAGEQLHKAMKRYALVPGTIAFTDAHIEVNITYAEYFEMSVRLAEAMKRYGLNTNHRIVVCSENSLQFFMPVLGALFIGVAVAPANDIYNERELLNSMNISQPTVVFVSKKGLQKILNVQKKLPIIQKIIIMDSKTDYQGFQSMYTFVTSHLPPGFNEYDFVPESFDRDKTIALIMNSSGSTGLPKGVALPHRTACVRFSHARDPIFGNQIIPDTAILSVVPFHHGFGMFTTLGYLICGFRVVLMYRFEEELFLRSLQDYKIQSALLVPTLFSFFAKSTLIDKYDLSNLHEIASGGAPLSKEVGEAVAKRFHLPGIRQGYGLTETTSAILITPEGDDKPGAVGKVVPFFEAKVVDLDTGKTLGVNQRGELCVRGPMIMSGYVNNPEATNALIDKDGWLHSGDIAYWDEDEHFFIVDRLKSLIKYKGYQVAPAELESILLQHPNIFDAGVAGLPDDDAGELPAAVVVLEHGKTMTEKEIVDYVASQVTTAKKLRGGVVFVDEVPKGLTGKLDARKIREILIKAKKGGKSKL

Take `CCCCCCCCO` [1-octanol]: the IC50 in assay [1] is recorded as ~ 225 µM.
`CC1(CCCCCCO)N=N1` [7-azioctanol]: the “equilibrium photolabeling with LC-MSMS” value in assay [2] was “photolabeled the American firefly luciferase at equilibrium with the azialkanols, and found the labeling pattern to be identical”.
For `CCCCCC1(CCO)N=N1` [3-azioctanol, 3-(2-hydroxyethyl)-3-n-pentyldiazirine], the dissociation constant Kd in assay [3] is more than 1000 µM. The compound also came in with an IC50 in assay [4] of 200 ± 46 µM.

What is called IC50 is the concentration needed to halve the response being measured. For orientation: Kd means the equilibrium constant for the complex coming apart. Read a low Kd as a tighter complex.
